Source: ChEMBL document CHEMBL4507261, “Data for DCP probe A-192621” (2021)

Assays:
[1] = target: RAF proto-oncogene serine/threonine-protein kinase (Homo sapiens) (UniProt P04049); conditions: Compound concentration 1000.0 nM
[2] = target: Mitogen-activated protein kinase kinase kinase 4 (Homo sapiens) (UniProt Q9Y6R4); conditions: Compound concentration 1000.0 nM
[3] = test system: Epidermal growth factor receptor (Homo sapiens), P00533 [L858R,T790M]; conditions: Compound concentration 1000.0 nM
[4] = target: Sodium- and chloride-dependent GABA transporter 1 (Rattus norvegicus) (UniProt P23978); assay: GABA transporter Eurofins-Cerep binding assay; set-up: ligand concentration 10 nM; conditions: filed as antagonist, Compound concentration 10.0 uM
[5] = test system: Receptor-type tyrosine-protein kinase FLT3 (Homo sapiens), P36888 [D835V]; conditions: Compound concentration 1000.0 nM
[6] = target: Cyclin-dependent kinase 9 (Homo sapiens) (UniProt P50750); conditions: Compound concentration 1000.0 nM
[7] = target: Adenosine receptor A2a (Homo sapiens) (UniProt P29274); assay: A2A (h) Eurofins-Cerep binding assay; set-up: ligand concentration 6 nM; conditions: filed as agonist, Compound concentration 10.0 uM
[8] = target: Receptor tyrosine-protein kinase erbB-2 (Homo sapiens) (UniProt P04626); conditions: Compound concentration 1000.0 nM
[9] = target: Casein kinase I isoform gamma-2 (Homo sapiens) (UniProt P78368); conditions: Compound concentration 1000.0 nM
[10] = target: Casein kinase II subunit alpha (Homo sapiens) (UniProt P68400); conditions: Compound concentration 1000.0 nM
[11] = target: Mitogen-activated protein kinase 3 (Homo sapiens) (UniProt P27361); conditions: Compound concentration 1000.0 nM
[12] = test system: Epidermal growth factor receptor (Homo sapiens), P00533 [G719S]; conditions: Compound concentration 1000.0 nM
[13] = target: Serine/threonine-protein kinase PLK2 (Homo sapiens) (UniProt Q9NYY3); conditions: Compound concentration 1000.0 nM
[14] = target: Myosin-IIIb (Homo sapiens) (UniProt Q8WXR4); conditions: Compound concentration 1000.0 nM
[15] = target: voltage-gated L-type Ca2+ channel (dihydropyridine site) (Rattus norvegicus, UniProt P22002+P27732+Q02485); assay: Ca2+ channel (L, dihydropyridine site) Eurofins-Cerep binding assay; set-up: incubation time 90 min, incubation temperature RT, ligand concentration 0.1 nM; conditions: rat cerebral cortex (source of protein), probe [3H]nitrendipine (0.1 nM), compound concentration 10 uM, read-out: % Inhibition of Control Specific Binding (Mean n=2)
[16] = target: Serine/threonine-protein kinase NLK (Homo sapiens) (UniProt Q9UBE8); conditions: Compound concentration 1000.0 nM
[17] = test system: ALK tyrosine kinase receptor (Homo sapiens), Q9UM73 [L1196M]; conditions: Compound concentration 1000.0 nM
[18] = target: Cyclin-dependent kinase 4 (Homo sapiens) (UniProt P11802); conditions: Compound concentration 1000.0 nM
[19] = target: Bone morphogenetic protein receptor type-1B (Homo sapiens) (UniProt O00238); conditions: Compound concentration 1000.0 nM
[20] = target: T1, Alpha-1A adrenergic receptor (Homo sapiens) (UniProt P35348); assay: Alpha1A (h) Eurofins-Cerep binding assay; set-up: ligand concentration 0.1 nM; conditions: filed as antagonist, Compound concentration 10.0 uM
T1 sequence (whole entry): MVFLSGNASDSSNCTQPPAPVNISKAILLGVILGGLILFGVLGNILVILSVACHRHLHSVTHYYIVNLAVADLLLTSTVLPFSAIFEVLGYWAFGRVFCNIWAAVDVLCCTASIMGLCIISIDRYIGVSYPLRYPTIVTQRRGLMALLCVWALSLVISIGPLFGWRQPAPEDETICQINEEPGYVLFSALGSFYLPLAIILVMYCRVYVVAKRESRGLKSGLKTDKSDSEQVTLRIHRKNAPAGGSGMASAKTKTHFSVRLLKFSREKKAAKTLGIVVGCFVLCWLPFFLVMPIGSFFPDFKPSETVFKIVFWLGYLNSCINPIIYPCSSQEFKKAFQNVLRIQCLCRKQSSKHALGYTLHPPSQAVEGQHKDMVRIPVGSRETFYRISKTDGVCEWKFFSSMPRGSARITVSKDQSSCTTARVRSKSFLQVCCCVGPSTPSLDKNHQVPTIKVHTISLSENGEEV

[21] = target: Leukocyte tyrosine kinase receptor (Homo sapiens) (UniProt P29376); conditions: Compound concentration 1000.0 nM
[22] = test system: Tyrosine-protein kinase ABL1 (Homo sapiens), P00519 [T315I]; conditions: Compound concentration 1000.0 nM
[23] = target: Cyclin-dependent kinase 15 (Homo sapiens) (UniProt Q96Q40); conditions: Compound concentration 1000.0 nM
[24] = target: Ribosomal protein S6 kinase alpha-1 (Homo sapiens) (UniProt Q15418); conditions: Compound concentration 1000.0 nM
[25] = target: Serine/threonine-protein kinase PLK4 (Homo sapiens) (UniProt O00444); conditions: Compound concentration 1000.0 nM
[26] = target: D(1A) dopamine receptor (Homo sapiens) (UniProt P21728); assay: D1 (h) Eurofins-Cerep binding assay; set-up: ligand concentration 0.3 nM; conditions: filed as antagonist, Compound concentration 10.0 uM
[27] = target: Mitogen-activated protein kinase kinase kinase 20 (Homo sapiens) (UniProt Q9NYL2); conditions: Compound concentration 1000.0 nM
[28] = target: Activated CDC42 kinase 1 (Homo sapiens) (UniProt Q07912); conditions: Compound concentration 1000.0 nM
[29] = target: Serine/threonine-protein kinase D1 (Homo sapiens) (UniProt Q15139); conditions: Compound concentration 1000.0 nM
[30] = target: Serine/threonine-protein kinase 16 (Homo sapiens) (UniProt O75716); conditions: Compound concentration 1000.0 nM
[31] = target: Serine/threonine-protein kinase BRSK1 (Homo sapiens) (UniProt Q8TDC3); conditions: Compound concentration 1000.0 nM
[32] = target: MAO-B (amine oxidase [flavin-containing] B) (Homo sapiens, UniProt P27338); assay: MAO-B (h) recombinant enzyme Eurofins-Cerep enzyme and uptake assay; set-up: incubation time 60 min, incubation temperature 37°C, substrate/stimulus/tracer D-Luciferin derivative (4 µM); conditions: probe D-Luciferin derivative (4 µM), compound concentration 10 uM, read-out: % Inhibition of Control Values (Mean n=2)
[33] = target: Endothelin receptor type B (Homo sapiens) (UniProt P24530); assay: ETB (h) Eurofins-Cerep binding assay; conditions: filed as agonist, Compound concentration 10.0 uM
[34] = target: Serine/threonine-protein kinase Nek9 (Homo sapiens) (UniProt Q8TD19); conditions: Compound concentration 1000.0 nM
[35] = target: Mitotic checkpoint serine/threonine-protein kinase BUB1 (Homo sapiens) (UniProt O43683); conditions: Compound concentration 1000.0 nM
[36] = test system: Fibroblast growth factor receptor 3 (Homo sapiens), P22607 [G697C]; conditions: Compound concentration 1000.0 nM
[37] = test system: Phosphatidylinositol 4,5-bisphosphate 3-kinase catalytic subunit alpha isoform (Homo sapiens), P42336 [C420R]; conditions: Compound concentration 1000.0 nM

Sequence of Cyclin-dependent kinase 4 (Homo sapiens) (P11802 whole entry): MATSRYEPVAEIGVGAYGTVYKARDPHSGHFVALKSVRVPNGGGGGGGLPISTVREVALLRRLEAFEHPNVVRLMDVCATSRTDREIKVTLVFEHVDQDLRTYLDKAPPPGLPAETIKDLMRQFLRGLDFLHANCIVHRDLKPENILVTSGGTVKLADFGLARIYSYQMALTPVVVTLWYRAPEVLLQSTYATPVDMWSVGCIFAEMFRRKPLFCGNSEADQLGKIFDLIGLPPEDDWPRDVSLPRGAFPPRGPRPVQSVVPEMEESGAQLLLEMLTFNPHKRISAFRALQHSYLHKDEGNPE
Sequence of D(1A) dopamine receptor (Homo sapiens) (P21728 whole entry): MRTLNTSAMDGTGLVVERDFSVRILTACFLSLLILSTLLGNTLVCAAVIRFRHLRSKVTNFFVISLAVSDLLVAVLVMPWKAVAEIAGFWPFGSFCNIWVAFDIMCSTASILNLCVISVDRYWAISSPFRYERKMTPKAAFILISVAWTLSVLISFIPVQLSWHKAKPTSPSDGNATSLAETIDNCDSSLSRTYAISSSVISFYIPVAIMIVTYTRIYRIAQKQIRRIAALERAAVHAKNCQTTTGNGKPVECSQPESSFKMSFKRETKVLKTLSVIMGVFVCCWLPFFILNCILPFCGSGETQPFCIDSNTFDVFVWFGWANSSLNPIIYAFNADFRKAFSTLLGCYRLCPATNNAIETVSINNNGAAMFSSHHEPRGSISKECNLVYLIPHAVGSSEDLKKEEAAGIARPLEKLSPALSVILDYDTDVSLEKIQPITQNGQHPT
Sequence of Activated CDC42 kinase 1 (Homo sapiens) (Q07912 whole entry, looked up): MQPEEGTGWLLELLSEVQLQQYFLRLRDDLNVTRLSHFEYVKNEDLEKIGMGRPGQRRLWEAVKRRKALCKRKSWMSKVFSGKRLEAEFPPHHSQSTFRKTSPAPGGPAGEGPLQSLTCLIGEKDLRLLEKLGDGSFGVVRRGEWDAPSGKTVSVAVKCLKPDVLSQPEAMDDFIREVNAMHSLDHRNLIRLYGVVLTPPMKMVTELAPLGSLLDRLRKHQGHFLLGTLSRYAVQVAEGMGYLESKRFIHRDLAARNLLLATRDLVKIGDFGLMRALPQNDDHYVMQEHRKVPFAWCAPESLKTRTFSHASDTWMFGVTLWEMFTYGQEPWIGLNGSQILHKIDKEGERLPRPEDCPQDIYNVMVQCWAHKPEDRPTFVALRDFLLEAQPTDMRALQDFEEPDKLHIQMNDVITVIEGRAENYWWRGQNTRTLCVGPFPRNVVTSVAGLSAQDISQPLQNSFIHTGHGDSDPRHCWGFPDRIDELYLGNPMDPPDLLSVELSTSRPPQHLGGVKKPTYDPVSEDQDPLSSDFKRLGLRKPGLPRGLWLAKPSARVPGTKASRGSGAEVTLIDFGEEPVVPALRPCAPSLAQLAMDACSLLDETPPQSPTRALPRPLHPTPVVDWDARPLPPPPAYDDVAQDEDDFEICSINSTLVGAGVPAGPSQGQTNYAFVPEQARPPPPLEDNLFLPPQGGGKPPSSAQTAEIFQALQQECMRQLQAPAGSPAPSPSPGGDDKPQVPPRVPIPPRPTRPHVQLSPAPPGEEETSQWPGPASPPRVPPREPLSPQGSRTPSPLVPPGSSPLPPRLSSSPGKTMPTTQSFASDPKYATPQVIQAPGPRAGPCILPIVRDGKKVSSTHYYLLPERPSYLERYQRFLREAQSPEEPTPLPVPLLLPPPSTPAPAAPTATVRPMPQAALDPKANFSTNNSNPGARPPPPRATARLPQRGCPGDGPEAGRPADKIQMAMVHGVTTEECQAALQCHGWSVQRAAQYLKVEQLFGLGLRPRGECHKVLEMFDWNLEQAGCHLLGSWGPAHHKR
Sequence of Mitogen-activated protein kinase 3 (Homo sapiens) (P27361 whole entry): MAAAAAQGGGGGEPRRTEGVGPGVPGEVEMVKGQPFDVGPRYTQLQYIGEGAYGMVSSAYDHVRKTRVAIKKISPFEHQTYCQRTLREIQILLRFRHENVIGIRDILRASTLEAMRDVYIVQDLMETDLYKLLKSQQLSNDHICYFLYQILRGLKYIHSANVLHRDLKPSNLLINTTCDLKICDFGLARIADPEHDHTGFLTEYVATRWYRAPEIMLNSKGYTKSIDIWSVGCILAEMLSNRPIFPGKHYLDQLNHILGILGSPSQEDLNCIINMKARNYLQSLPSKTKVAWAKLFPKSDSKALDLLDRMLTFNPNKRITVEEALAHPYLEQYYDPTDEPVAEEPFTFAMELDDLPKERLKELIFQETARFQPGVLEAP
Sequence of Casein kinase I isoform gamma-2 (Homo sapiens) (P78368 whole entry, looked up, canonical isoform): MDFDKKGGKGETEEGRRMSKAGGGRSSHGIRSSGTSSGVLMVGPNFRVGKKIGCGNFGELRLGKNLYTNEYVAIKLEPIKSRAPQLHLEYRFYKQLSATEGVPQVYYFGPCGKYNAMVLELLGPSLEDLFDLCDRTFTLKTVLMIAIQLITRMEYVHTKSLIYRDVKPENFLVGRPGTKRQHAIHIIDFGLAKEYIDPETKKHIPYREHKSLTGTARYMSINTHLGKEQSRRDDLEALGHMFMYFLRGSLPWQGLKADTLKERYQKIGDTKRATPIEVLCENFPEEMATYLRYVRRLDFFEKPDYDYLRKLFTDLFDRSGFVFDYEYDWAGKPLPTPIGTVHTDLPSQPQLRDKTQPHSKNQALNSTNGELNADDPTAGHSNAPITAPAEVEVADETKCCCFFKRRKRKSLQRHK
Sequence of Endothelin receptor type B (Homo sapiens) (P24530 whole entry): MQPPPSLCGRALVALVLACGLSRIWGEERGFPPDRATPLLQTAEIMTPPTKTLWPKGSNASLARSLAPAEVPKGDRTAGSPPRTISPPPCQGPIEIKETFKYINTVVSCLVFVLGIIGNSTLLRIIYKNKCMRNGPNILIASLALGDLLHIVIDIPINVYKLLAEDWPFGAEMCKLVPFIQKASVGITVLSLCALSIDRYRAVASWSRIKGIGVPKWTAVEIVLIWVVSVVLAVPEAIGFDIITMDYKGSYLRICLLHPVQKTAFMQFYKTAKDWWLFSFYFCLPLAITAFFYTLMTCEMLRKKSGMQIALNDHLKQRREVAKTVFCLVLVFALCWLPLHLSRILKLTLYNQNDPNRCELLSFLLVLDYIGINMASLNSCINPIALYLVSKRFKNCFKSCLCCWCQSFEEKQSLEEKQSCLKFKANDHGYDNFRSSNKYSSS
Sequence of Mitogen-activated protein kinase kinase kinase 4 (Homo sapiens) (Q9Y6R4 whole entry): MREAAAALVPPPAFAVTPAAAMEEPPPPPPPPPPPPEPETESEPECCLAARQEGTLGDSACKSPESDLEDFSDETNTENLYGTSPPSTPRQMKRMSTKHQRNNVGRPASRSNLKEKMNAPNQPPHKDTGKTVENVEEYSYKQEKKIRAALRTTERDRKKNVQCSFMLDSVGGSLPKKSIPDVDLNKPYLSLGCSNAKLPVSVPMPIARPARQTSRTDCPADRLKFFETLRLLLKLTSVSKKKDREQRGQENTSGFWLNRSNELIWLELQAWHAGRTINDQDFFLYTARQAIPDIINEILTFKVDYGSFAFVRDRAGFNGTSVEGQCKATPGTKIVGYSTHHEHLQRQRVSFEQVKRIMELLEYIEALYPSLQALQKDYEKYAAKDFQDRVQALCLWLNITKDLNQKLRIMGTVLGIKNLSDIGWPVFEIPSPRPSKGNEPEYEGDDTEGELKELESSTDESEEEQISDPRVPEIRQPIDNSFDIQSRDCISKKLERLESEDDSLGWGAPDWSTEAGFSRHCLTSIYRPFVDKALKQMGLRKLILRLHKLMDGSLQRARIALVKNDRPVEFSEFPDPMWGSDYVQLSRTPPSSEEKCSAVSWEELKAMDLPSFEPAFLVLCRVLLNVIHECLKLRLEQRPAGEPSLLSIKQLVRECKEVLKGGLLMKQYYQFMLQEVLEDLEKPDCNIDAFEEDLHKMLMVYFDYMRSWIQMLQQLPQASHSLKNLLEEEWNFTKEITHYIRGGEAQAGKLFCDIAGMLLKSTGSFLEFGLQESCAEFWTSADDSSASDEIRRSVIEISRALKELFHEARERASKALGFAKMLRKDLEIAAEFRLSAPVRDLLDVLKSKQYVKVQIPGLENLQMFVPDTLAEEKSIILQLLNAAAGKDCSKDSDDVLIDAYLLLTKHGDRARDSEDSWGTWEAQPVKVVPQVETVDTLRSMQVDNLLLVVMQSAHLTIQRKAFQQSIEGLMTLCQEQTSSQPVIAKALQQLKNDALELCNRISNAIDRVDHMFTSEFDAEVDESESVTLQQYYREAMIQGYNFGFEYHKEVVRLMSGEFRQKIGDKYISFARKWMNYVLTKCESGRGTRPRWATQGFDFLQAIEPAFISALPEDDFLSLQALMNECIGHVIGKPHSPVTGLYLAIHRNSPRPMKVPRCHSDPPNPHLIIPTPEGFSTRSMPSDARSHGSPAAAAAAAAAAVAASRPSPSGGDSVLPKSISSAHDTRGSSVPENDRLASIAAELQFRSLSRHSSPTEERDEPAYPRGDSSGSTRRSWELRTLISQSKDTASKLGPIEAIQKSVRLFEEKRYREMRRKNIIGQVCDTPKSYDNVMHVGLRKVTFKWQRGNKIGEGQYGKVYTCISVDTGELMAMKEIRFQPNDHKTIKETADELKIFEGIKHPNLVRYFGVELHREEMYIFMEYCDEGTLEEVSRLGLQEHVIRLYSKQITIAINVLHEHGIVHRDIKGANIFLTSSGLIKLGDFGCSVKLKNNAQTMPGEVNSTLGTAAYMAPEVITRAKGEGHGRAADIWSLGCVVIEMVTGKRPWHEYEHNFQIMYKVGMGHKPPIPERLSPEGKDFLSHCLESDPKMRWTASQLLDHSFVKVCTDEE
Sequence of Adenosine receptor A2a (Homo sapiens) (P29274 whole entry): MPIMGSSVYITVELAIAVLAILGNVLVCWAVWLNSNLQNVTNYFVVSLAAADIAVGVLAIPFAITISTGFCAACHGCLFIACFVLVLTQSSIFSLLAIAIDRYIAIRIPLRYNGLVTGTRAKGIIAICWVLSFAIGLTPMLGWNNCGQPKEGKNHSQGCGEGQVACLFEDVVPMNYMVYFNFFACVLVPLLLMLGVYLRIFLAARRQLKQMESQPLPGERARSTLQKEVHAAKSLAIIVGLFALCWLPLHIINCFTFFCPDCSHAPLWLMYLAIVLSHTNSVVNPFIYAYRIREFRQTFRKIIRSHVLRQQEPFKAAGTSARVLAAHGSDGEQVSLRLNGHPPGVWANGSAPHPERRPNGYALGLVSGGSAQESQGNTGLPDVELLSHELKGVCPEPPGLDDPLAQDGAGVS

Structure (SMILES) | residual activity [1] [%] | residual activity [2] [%] | residual activity [3] [%] | % Inhibition of Control Specific Binding (Mean n=2) [4] [%] | residual activity [5] [%] | residual activity [6] [%] | % Inhibition of Control Specific Binding (Mean n=2) [7] [%] | residual activity [8] [%] | residual activity [9] [%] | residual activity [10] [%] | residual activity [11] [%] | residual activity [12] [%] | residual activity [13] [%] | residual activity [14] [%] | inhibition at 90 min, 10 µM [15] [%] | residual activity [16] [%] | residual activity [17] [%] | residual activity [18] [%] | residual activity [19] [%] | % Inhibition of Control Specific Binding (Mean n=2) [20] [%] | further results
CCCOc1ccc([C@H]2[C@H](C(=O)O)[C@@H](c3ccc4c(c3)OCO4)CN2CC(=O)Nc2c(CC)cccc2CC)cc1 [A-192621] | 98 | 88 | 75 | -12 | 88 | 88 | -4.8 | 79 | 100 | 69 | 93 | 89 | 79 | 66 | 30.3 | 100 | 91 | 100 | 61 | 5 | residual activity [21]: 100%; residual activity [22]: 58%; residual activity [23]: 94%; residual activity [24]: 74%; residual activity [25]: 78%; % Inhibition of Control Specific Binding (Mean n=2) [26]: -2.2%; residual activity [27]: 90%; residual activity [28]: 100%; residual activity [29]: 94%; residual activity [30]: 72%; residual activity [31]: 100%; inhibition at 60 min, 10 µM [32]: -12.3%; % Inhibition of Control Specific Binding (Mean n=2) [33]: 94.7%; residual activity [34]: 95%; residual activity [35]: 98%; residual activity [36]: 85%; residual activity [37]: 95%
CCCOc1ccc([C@@H]2[C@@H](C(=O)O)[C@H](c3ccc4c(c3)OCO4)CN2CC(=O)Nc2c(CC)cccc2CC)cc1 [A-1806262] | 100 | 99 | 87 | -17.3 | 62 | 87 | -12.4 | 80 | 96 | 100 | 93 | 100 | 86 | 52 | 27.2 | 100 | 78 | 100 | 82 | 3.7 | residual activity [21]: 100%; residual activity [22]: 83%; residual activity [23]: 93%; residual activity [24]: 77%; residual activity [25]: 82%; % Inhibition of Control Specific Binding (Mean n=2) [26]: -0.2%; residual activity [27]: 100%; residual activity [28]: 90%; residual activity [29]: 96%; residual activity [30]: 87%; residual activity [31]: 100%; inhibition at 60 min, 10 µM [32]: -14.5%; % Inhibition of Control Specific Binding (Mean n=2) [33]: 96.7%; residual activity [34]: 100%; residual activity [35]: 92%; residual activity [36]: 99%; residual activity [37]: 100%
